This note sets out measurements from US8361988B2, “Nucleoside and nucleotide analogues with quaternary carbon centers and methods of use” (Institut de Recherches Cliniques de Montreal, priority 2007, dated 2013).

Assay [1] concerns the target T1, Drosophila melanogaster dNK (Drosophila melanogaster, UniProt Q9XZT6).
T1 sequence (Q9XZT6 1-250): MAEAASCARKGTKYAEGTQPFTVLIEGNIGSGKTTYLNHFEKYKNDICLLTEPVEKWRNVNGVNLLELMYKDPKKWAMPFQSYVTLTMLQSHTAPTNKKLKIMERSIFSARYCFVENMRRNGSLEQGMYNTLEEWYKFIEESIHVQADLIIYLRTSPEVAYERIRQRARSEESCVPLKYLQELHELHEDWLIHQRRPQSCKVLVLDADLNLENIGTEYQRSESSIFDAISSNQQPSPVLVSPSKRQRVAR
Nature of the assay: Phosphorylation assay (spectrophotometric coupled-enzyme), D. melanogaster dNK. The assay is classed as biochemical. The settings on record: substrate at 100 μM, 37° C., 1 mM ATP, triplicate. As to the method:
Compounds of the invention were also tested in a phosphorylation assay using three deoxynucleoside kinases. […] The compounds were at substrate concentration of 100 μM.
Kinetic assay. […] Briefly, the individual nucleosides at 100 μM were prepared in reaction buffer containing 50 mM Tris-HCl (pH 7.5), 0.1 M KCl, 5 mM MgCl2, 1 mM DTT, 1 mM ATP, 0.21 mM phosphoenolpyruvate, 0.18 mM NADH, and 2 units/ml pyruvate kinase and 2 units/ml lactate dehydrogenase (Roche Biochemicals, Indianapolis, Ind.). Assays were performed at 37° C. by measuring the absorbance change at 340 nm. The enzyme amount was adjusted to limit NADH turnover to 10% over the time of the experiment. All experiments were performed in triplicate.

Assay [2] deals with Thermotoga maritima thymidine kinase (Thermotoga maritima, UniProt Q9WYN2). The experiment in a line: Phosphorylation assay (spectrophotometric coupled-enzyme), T. maritima TK. It counts as biochemical. The settings on record: substrate at 100 μM, 37° C., 1 mM ATP, triplicate. As to the method:
Compounds of the invention were also tested in a phosphorylation assay using three deoxynucleoside kinases. The kinases include human dCK, which is responsible for the activation of numerous nucleoside analog prodrugs; Drosophila melanogaster dNK, which is the fastest known kinases with the broadest substrate specificity profile; and Thermotoga maritima thymidine kinase, which is a good surrogate for human thymidine kinase 1, a member of the distinct type II kinase subfamily. The compounds were at substrate concentration of 100 μM.
Kinetic assay. Substrate phosphorylation was determined using a spectrophotometric coupled-enzyme assay (Munch-Petersen et al. (2000) J. Biol. Chem. vol. 275p. 66′73-66′79; Schelling et al. (2001) Anal. Biochem vol. 295 p. 82-8′7). Briefly, the individual nucleosides at 100 μM were prepared in reaction buffer containing 50 mM Tris-HCl (pH 7.5), 0.1 M KCl, 5 mM MgCl2, 1 mM DTT, 1 mM ATP, 0.21 mM phosphoenolpyruvate, 0.18 mM NADH, and 2 units/ml pyruvate kinase and 2 units/ml lactate dehydrogenase (Roche Biochemicals, Indianapolis, Ind.). Assays were performed at 37° C. by measuring the absorbance change at 340 nm. The enzyme amount was adjusted to limit NADH turnover to 10% over the time of the experiment. All experiments were performed in triplicate.

Structures are written as SMILES.

Thermotoga maritima thymidine kinase, sequence (Q9WYN2 whole entry): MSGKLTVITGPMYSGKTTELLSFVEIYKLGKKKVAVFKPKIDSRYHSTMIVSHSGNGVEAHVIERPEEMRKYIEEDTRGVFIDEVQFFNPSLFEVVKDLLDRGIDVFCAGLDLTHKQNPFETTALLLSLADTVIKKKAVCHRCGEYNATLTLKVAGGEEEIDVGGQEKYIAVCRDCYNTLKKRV

For `COC(=O)C1(C)CC(n2cc(C)c(=O)[nH]c2=O)OC1CO` (racemic) [LCB-1010-2, (±) methyl 2-(hydroxymethyl)-3-methyl-5-(5-methyl-2,4-dioxo-3,4-dihydropyrimidin-1(2H)-yl)tetrahydrofuran-3-carboxylate], the “D. melanogaster dNK substrate phosphorylation” value in assay [1] is on record as 2.13 10^6 μmol/min mg. For the same molecule, the “T. maritima TK substrate phosphorylation” value in assay [2] was 5.6 10^−3 μmol/min mg. As for `Cc1cn([C@@H]2CC(C)(CO)[C@@H](CO)O2)c(=O)[nH]c1=O` (mixture of isomers) [LCB-1004-2], the “D. melanogaster dNK substrate phosphorylation” value in assay [1] is given as 3.7 10^6 μmol/min mg. Further, in assay [2], the “T. maritima TK substrate phosphorylation” value was <1 10^−3 μmol/min mg.

Consider `COC(=O)C1(C)C[C@H](n2cc(C)c(=O)[nH]c2=O)O[C@@H]1CO` (mixture of isomers) [LCB-1009-2], for which the “D. melanogaster dNK substrate phosphorylation” value in assay [1] was 3.44 10^6 μmol/min mg. Besides, the “T. maritima TK substrate phosphorylation” value in assay [2] is on record as 4.9 10^−3 μmol/min mg. For `Cc1cn([C@H]2C[C@H](O)[C@@H](CO)O2)c(=O)[nH]c1=O` [Thymidine, reference compound], the “T. maritima TK substrate phosphorylation” value in assay [2] is recorded as 830 10^−3 μmol/min mg.

For the molecule `Cc1cn([C@H]2CC(C)(CO)[C@@H](CO)O2)c(=O)[nH]c1=O` (mixture of isomers) [LCB-1007-2], the “D. melanogaster dNK substrate phosphorylation” value in assay [1] is 0.74 10^6 μmol/min mg. In assay [2], the “T. maritima TK substrate phosphorylation” value is 2.2 10^−3 μmol/min mg. As to `COC(=O)C1(C)C[C@H](n2cc(F)c(=O)[nH]c2=O)O[C@@H]1CO` (mixture of isomers) [LCB-1023, 5-(5-Fluoro-2,4-dioxo-3,4-dihydro-2H-pyrimidin-1-yl)-2-hydroxymethyl-3-methyl-tetrahydro-furan-3-carhoxylic acid methyl ester], in assay [1] (listed as LCB-1023-1), the “D. melanogaster dNK substrate phosphorylation” value is reported as 0.33 10^6 μmol/min mg. The “T. maritima TK substrate phosphorylation” value in assay [2] (listed as LCB-1023-1) was 2.1 10^−3 μmol/min mg.
